# Measurements reported in ChEMBL document CHEMBL5338769, “Discovery of Norisoboldine Analogue III11 as a Novel and Potent Aryl Hydrocarbon Receptor Agonist for the Treatment of Ulcerative Colitis” (J Med Chem, 2023).
# Activity calls are given as the source filed them. The calls are words filed in the database; no cut-off is given here.
# Key:
# [1] = molecular target: T1, Aryl hydrocarbon receptor (Mus musculus, UniProt P30561); experiment: Activation of AhR transcription in C57BL/6 mouse naive T cells assessed as increase in CYP1A1 mRNA expression at 1 to 3 uM measured after 72 hrs by qRT-PCR analysis; type: cell-based; conditions: t cell, dose 1-3 µM
# T1 sequence (P30561 whole entry): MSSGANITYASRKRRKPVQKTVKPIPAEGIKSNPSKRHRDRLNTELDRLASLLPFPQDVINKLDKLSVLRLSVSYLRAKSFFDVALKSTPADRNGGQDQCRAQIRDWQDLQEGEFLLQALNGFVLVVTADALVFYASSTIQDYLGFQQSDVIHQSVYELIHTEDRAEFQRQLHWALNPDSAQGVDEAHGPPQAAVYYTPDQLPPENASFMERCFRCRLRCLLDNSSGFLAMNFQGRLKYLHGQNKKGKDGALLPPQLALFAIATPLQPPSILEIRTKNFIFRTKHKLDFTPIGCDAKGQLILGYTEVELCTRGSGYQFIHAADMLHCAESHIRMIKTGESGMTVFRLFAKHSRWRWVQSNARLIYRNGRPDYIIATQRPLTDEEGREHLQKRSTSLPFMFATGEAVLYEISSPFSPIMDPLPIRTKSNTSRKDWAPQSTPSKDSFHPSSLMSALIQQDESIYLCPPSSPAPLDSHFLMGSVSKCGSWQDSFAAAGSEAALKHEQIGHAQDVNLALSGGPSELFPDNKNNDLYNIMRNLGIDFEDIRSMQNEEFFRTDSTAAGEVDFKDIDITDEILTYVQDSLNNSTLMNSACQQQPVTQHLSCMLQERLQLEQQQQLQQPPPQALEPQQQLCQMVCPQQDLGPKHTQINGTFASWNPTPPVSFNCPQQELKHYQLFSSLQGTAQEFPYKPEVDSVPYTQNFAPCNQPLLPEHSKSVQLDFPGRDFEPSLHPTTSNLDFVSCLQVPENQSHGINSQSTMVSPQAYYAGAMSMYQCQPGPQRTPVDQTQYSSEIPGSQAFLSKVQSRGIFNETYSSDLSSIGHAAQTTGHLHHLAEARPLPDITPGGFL
# [2] = molecular target: T1, Aryl hydrocarbon receptor; experiment: Activation of AhR transcription in C57BL/6 mouse naive T cells assessed as increase in CYP1A1 mRNA expression at 1 uM by qRT-PCR analysis; type: cell-based; conditions: t cell
# EL4 = experiment: Cytotoxicity against mouse EL4 cells assessed as inhibition of cell proliferation incubated for 72 hrs by MTT assay; type: functional, cell-based; conditions: EL4, 72 h
# [3] = Unbound drug concentration in rat plasma at 10.67 ug/ml of total concentration measured after 12 hrs by ultrafiltration based HPLC analysis; type: ADME, cell-free; conditions: dose 10.67 µg/ml
# [4] = Apparent oral clearance in Sprague-Dawley rat at 3 mg/kg, iv measured upto 1440 min by LC-MS/MS analysis; type: ADME, organism-based; conditions: in vivo, 24 h
# [5] = Cmax in Sprague-Dawley rat at 30 mg/kg, po measured at 120 min by LC-MS/MS analysis; type: ADME, organism-based; design: dose 30 mg/kg, time 120 min, route po; conditions: in vivo
# [6] = Oral bioavailability in Sprague-Dawley rat at 30 mg/kg measured upto 1440 min by LC-MS/MS analysis; type: ADME, organism-based; conditions: in vivo
# [7] = Apparent oral clearance in Sprague-Dawley rat at 30 mg/kg measured upto 1440 min by LC-MS/MS analysis; type: ADME, organism-based; conditions: in vivo, 24 h
# [8] = Protein binding in rat plasma at 10.67 ug/ml of total concentration measured after 12 hrs by ultrafiltration based HPLC analysis; type: ADME, cell-free; conditions: at 10.67 µg/mL, read-out: PPB (converted)
# [9] = molecular target: T1, Aryl hydrocarbon receptor; experiment: Activation of AhR transcription in C57BL/6 mouse naive T cells assessed as increase in CYP1A1 mRNA expression by measuring fold change at 10 uM measured after 72 hrs by qRT-PCR analysis relative to control; type: cell-based; conditions: T-cell, read-out: FC
# Regulatory T cell [10] = experiment: Induction of cell differentiation in C57BL/6 mouse naive regulatory T cells assessed as increase in […] mRNA level at 3 uM incubated for 72 hrs by qRT-PCR analysis; type: functional, cell-based
# Regulatory T cell [11] = experiment: Induction of cell differentiation in C57BL/6 mouse naive regulatory T cells at 10 uM incubated for 72 hrs by flow cytometric analysis; type: functional, cell-based
# [12] = molecular target: T1, Aryl hydrocarbon receptor; experiment: Activation of AhR transcription in C57BL/6 mouse naive T cells assessed as increase in CYP1A1 mRNA expression at 10 uM measured after 72 hrs by qRT-PCR analysis relative to control; type: cell-based; conditions: t cell
# [13] = Induction of cell differentiation in C57BL/6 mouse naive regulatory T cells assessed as increase in cell frequency at 30 uM incubated for 72 hrs by flow cytometric analysis (reference value: 24.9%); type: functional
# Mus musculus [14] = experiment: Anti-colitis activity in DSS-induced ulcerative colitis C57BL/6 mouse model assessed as CD4+CD25+Foxp3+ Treg cell percentage in spleen at 10 mg/kg, po administered once a day for 10 days by flow cytometric analysis (reference value: 3.3%); type: functional; conditions: time 10 day
# [15] = MRT in Sprague-Dawley rat at 30 mg/kg, po measured upto 1440 min by LC-MS/MS analysis; type: ADME, organism-based; conditions: in vivo
# [16] = Half-life in Sprague-Dawley rat at 3 mg/kg, iv measured upto 1440 min by LC-MS/MS analysis; type: ADME, organism-based; conditions: in vivo
# Mus musculus [17] = experiment: In vivo activation of AhR in C57BL/6 mouse assessed as increase in CYP1A1 mRNA expression at 10 to 20 mg/kg, po administered once a day for 10 days by qRT-PCR analysis; type: functional, organism-based; conditions: dose 10-20 mg/kg, time 10.0 day
# [18] = Tmax in Sprague-Dawley rat at 30 mg/kg, po measured upto 1440 min by LC-MS/MS analysis; type: ADME, organism-based; conditions: in vivo
# [19] = Half-life in Sprague-Dawley rat at 30 mg/kg, po measured upto 1440 min by LC-MS/MS analysis; type: ADME, organism-based; conditions: in vivo
# [20] = MRT in Sprague-Dawley rat at 3 mg/kg, iv measured upto 1440 min by LC-MS/MS analysis; type: ADME, organism-based; conditions: in vivo
# Mus musculus [21] = experiment: Anti-colitis activity in DSS-induced ulcerative colitis C57BL/6 mouse model assessed as increase in CD4+CD25+Foxp3+ Treg cell ratio in mesenteric lymph nodes at 10 mg/kg, po administered once a day for 10 days by flow cytometric analysis (reference value: 4.5 %); type: functional; conditions: time 10 day
# Regulatory T cell [22] = experiment: Induction of cell differentiation in C57BL/6 mouse naive regulatory T cells assessed as increase in IL-10 mRNA level at 3 uM incubated for 72 hrs by qRT-PCR analysis; type: functional, cell-based
# [23] = Induction of cell differentiation in C57BL/6 mouse naive regulatory T cells assessed as increase in cell frequency at 1 uM incubated for 72 hrs by flow cytometric analysis (reference value: 24.9%); type: functional
# [24] = AUC(0 to infinity) in Sprague-Dawley rat at 3 mg/kg, iv measured upto 1440 min by LC-MS/MS analysis; type: ADME, organism-based; design: dose 3 mg/kg, time < 1440 min, route iv; conditions: in vivo
# [25] = Induction of cell differentiation in C57BL/6 mouse naive regulatory T cells assessed as increase in cell frequency at 3 uM incubated for 72 hrs by flow cytometric analysis (reference value: 24.9%); type: functional
# [26] = Cmax in Sprague-Dawley rat at 3 mg/kg, iv measured at 120 min by LC-MS/MS analysis; type: ADME, organism-based; design: time 120 min, dose 3 mg/kg, route iv; conditions: in vivo
# Mus musculus [27] = experiment: Anti-colitis activity in DSS-induced ulcerative colitis C57BL/6 mouse model assessed as increase in CD4+CD25+Foxp3+ Treg cell ratio in mesenteric lymph nodes at 20 mg/kg, po administered once a day for 10 days by flow cytometric analysis (reference value: 4.5 %); type: functional; conditions: time 10 day
# [28] = Unbound drug concentration in rat plasma at 20.13 ug/ml of total concentration measured after 12 hrs by ultrafiltration based HPLC analysis; type: ADME, cell-free; conditions: dose 20.13 µg/ml
# [29] = Unbound drug concentration in rat plasma at 37.38 ug/ml of total concentration measured after 12 hrs by ultrafiltration based HPLC analysis; type: ADME, cell-free; conditions: dose 37.38 µg/ml
# [30] = AUC(0 to infinity) in Sprague-Dawley rat at 30 mg/kg, po measured upto 1440 min by LC-MS/MS analysis; type: ADME, organism-based; design: time < 1440 min, dose 30 mg/kg, route po; conditions: in vivo
# Mus musculus [31] = experiment: Anti-colitis activity in DSS-induced ulcerative colitis C57BL/6 mouse model assessed as CD4+CD25+Foxp3+ Treg cell percentage in spleen at 20 mg/kg, po administered once a day for 10 days by flow cytometric analysis (reference value: 3.3%); type: functional; conditions: time 10 day
# [32] = Induction of cell differentiation in C57BL/6 mouse naive regulatory T cells assessed as increase in cell frequency at 10 uM incubated for 72 hrs by flow cytometric analysis (reference value: 24.9%); type: functional
# [33] = molecular target: T1, Aryl hydrocarbon receptor; experiment: Activation of AhR transcription in C57BL/6 mouse naive T cells assessed as increase in CYP1A1 mRNA expression at 3 uM measured after 72 hrs by qRT-PCR analysis relative to control; type: cell-based; conditions: t cell
smiles,measurement,setting,value
COc1cc2c3c(c1)-c1ccc(OCc4ccccc4)cc1CC3N(C(=O)OCc1ccccc1)CC2 (stereo not drawn),Activity,[1],Not Active
COc1cc2c3c(c1OC)-c1ccccc1CC3NCC2 (stereo not drawn) [NORNUCIFERINE],Activity,[2],Active
same,IC50,EL4,26.2 µM
COc1cccc(CCNC(=O)OCc2ccccc2)c1,Activity,[1],Not Active
COc1cc2c(cc1O)CC1NCCc3cc(OC)c(O)c-2c31 (stereo not drawn),Cp(f),[3],5200 ng/mL
same,CL/F,[4],0 mg/(ng/ml)/min
same,Cmax,[5],34.1 ng/mL
same,bioavailability,[6],2.49%
same,CL/F,[7],0.02 mg/(ng/ml)/min
same,"fraction unbound at 12 h, 10.67 ug/ml",[8],0.488
same,fold induction at 10 µM,[9],2.1
same,Activity,Regulatory T cell [10],inactive
same,Activity,Regulatory T cell [11],Active
same,Activity,[12],208.3%
same,Activity,[13],37.8%
same,Activity,Mus musculus [14],3%
same,MRT,[15],42.2 min
same,half-life,[16],14.1 min
same,Activity,Mus musculus [17],Active
same,Tmax,[18],16 min
same,half-life,[19],23.3 min
same,MRT,[20],20.6 min
same,IC50,EL4,80 µM
same,Activity,Mus musculus [21],5.6%
same,Activity,Regulatory T cell [22],inactive
same,Activity,[23],25.4%
same,AUC(0-inf),[24],112 ng·h/mL
same,Activity,[25],26.6%
same,Cmax,[26],245 ng/mL
same,Activity,Mus musculus [27],6%
same,Cp(f),[28],10020 ng/mL
same,Cp(f),[29],18360 ng/mL
same,AUC(0-inf),[30],27.8 ng·h/mL
same,Activity,Mus musculus [31],3.6%
same,Activity,[32],32%
COc1ccc2c(c1)CCN(C(=O)OCc1ccccc1)C2Cc1cc(OCc2ccccc2)ccc1Br (stereo not drawn),Activity,[1],Not Active
COc1cccc(CCN)c1,Activity,[1],Not Active
O=Cc1cc(OCc2ccccc2)ccc1Br,Activity,[1],Not Active
COc1cc2c3c(c1OC)-c1ccc(O)cc1CC3NCC2 (stereo not drawn),Activity,[33],150.7%
same,IC50,EL4,64.4 µM
COc1ccc2c(c1)-c1c(OC)c(OC)cc3c1C(C2)NCC3 (stereo not drawn),Activity,[33],177%
same,IC50,EL4,20.7 µM
CO/C=C/c1cc(OCc2ccccc2)ccc1Br,Activity,[1],Not Active
